# Measured values reported in patent US20130071854A1, “METHODS FOR THE IDENTIFICATION AND CHARACTERIZATION OF HDAC INTERACTING COMPOUNDS” (priority 2009, published 2013).
# Read-outs that look alike come from different tables or passages of the source.
# Experiments:
# [1] = system: T1, MiDAC complex (HDAC1/2, DNTTIP1, CDYL, MIDEAS); assay: Chemoproteomic binding profiling, K562 cell extract, SAHA/ITF2357 probe matrix (Kd app); design: species or system human
# T1 construct: Kd^app MIDEAS; other: protein MIDEAS; MiDAC complex; Kd^app DNTTIP1; other: protein DNTTIP1
# [2] = system: SAP30; assay: Competition binding assay in cell lysate, affinity matrix, MS (Sin3 interactor); design: species or system human; details: K-562 cell lysate
# [3] = biological target: T2, APOBEC3C (Homo sapiens, UniProt Q9NRW3); assay: Competition binding assay in cell lysate, affinity matrix, MS
# T2 construct: endogenous in cells
# [4] = system: RBBP4; details: K-562 cell lysate
# [5] = biological target: TRERF1; type: binding, human; details: protein TRERF1; ELSA (ELM-SANT) domain proteins; read-out: Kd^app TRERF1
# [6] = biological target: T3, ISOC2 (Homo sapiens, UniProt Q96AB3); assay: Competition binding assay in cell lysate, affinity matrix, MS
# T3 construct: endogenous in cells
# [7] = biological target: T4, WDR5 (Homo sapiens, UniProt P61964); assay: as above
# T4 construct: endogenous in cells
# [8] = biological target: T5, NOSIP (Homo sapiens, UniProt Q9Y314); assay: as above
# T5 construct: endogenous in cells
# [9] = system: recombinant HDACs 1-11; assay: Binding of probe matrix to recombinant HDACs purified from Sf9 cells, competition by free SAHA; details: recombinant HDACs 1-11 purified from Sf9 cells
# [10] = system: IFNα secretion; assay: IFNα secretion assay in peripheral blood mononuclear cells stimulated with ODN2216; details: Homo sapiens, PBMC, read-out: EC50 inhibition of secretion of IFNα
# [11] = biological target: T6, HDAC6 (Homo sapiens, UniProt Q9UBN7); assay: Compound screening, competition binding with SAHA-beads, antibody dot-blot arrays, Jurkat and Ramos whole cell extract; design: endogenous in cells; Jurkat/Ramos whole cell extract
# T6 sequence (Q9UBN7 1-1215): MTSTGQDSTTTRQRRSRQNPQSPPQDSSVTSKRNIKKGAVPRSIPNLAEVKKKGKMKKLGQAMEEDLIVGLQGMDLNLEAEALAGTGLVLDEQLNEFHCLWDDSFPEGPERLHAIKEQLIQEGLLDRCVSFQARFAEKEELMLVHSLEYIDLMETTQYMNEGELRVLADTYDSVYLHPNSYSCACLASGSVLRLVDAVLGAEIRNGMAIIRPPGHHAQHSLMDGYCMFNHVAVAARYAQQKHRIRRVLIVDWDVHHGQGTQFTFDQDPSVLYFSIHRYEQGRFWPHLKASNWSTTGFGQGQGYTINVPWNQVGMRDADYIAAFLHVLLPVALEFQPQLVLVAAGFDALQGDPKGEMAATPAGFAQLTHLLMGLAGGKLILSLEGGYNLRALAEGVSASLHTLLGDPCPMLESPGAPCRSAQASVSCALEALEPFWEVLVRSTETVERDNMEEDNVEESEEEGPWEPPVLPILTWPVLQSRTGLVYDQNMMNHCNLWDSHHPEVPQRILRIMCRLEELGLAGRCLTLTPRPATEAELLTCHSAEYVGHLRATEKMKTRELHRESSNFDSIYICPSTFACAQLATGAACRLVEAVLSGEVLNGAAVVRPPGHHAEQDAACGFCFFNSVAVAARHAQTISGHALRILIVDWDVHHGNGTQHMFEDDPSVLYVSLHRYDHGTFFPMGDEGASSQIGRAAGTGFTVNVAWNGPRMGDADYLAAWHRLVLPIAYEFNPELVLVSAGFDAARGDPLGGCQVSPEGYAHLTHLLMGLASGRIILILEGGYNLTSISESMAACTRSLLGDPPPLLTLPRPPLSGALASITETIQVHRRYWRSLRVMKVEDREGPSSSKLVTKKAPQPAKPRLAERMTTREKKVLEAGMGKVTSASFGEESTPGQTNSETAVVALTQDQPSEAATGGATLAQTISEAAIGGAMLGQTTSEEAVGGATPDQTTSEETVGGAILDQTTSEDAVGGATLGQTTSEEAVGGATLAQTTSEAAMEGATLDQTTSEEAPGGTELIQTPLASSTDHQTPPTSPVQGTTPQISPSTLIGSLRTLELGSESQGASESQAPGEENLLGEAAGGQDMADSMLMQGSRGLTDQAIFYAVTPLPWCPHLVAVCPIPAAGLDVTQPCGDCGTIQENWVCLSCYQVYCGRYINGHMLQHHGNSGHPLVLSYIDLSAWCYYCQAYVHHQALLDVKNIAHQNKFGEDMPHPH
# Text: To enable the discovery of novel selective HDACi we developed a high throughput variation of the chemoproteomics protocol in which MS/MS detection is replaced with multiplexed fluorescent antibody detection on “dot blot” type arrays. The method was applied to the screening of a focused compound library in whole cell extract of Jurkat and Ramos cells for inhibitors of HDAC1, 2, 3 and 6. Several hits were obtained with a few compounds displaying a notable degree of selectivity (FIG. 35a). […] The cellular potency for tubulin deacetylation correlated with the potency for one of the drugs' anti-inflammatory effects, the secretion of IFNα in peripheral blood mononuclear cells (FIG. 35d).
# The compounds for screening was selected either for their potential to be Zinc chelators or based on a similarity search of the compound collections from Asinex Corp. (Winston-Salem, N.C., USA) and Enamine (Mammouth_Jct., NJ, USA), using a training set of 140 known HDAC inhibitors. Competition binding assays using SAHA-beads were performed essentially as described above but adapted to a 96-well format. 1 mg of cell lysate and 5 μl of beads were used per well. Compounds from the screening library including reference compounds as standards were added at 20 μM and 100 μM final concentration from 50×DMSO stocks. Each plate contained 8 positive (TSA 50 μM) and eight negative controls (2% DMSO). […]
# [12] = biological target: MiDAC complex (HDAC1/2, DNTTIP1, CDYL, MIDEAS) (Homo sapiens, UniProt Q13547+Q92769); assay: Chemoproteomic binding profiling, K562 cell extract, SAHA/ITF2357 probe matrix (Kd app); design: Kd^app MIDEAS; other: protein MIDEAS; MiDAC complex; Kd^app DNTTIP1; other: protein DNTTIP1
# [13] = protein DNTTIP1, read-out: Kd^app DNTTIP1
# [14] = protein MIDEAS, read-out: Kd^app MIDEAS
# T5 sequence (Q9Y314 whole entry): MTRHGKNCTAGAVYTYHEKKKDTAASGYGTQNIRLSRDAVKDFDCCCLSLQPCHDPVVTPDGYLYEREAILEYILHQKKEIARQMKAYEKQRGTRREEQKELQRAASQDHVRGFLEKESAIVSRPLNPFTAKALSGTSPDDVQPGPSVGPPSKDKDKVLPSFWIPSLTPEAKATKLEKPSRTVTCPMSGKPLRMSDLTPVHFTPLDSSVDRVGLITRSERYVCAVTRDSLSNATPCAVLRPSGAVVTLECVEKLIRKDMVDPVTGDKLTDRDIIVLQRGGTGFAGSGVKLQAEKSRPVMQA
# T3 sequence (Q96AB3 whole entry): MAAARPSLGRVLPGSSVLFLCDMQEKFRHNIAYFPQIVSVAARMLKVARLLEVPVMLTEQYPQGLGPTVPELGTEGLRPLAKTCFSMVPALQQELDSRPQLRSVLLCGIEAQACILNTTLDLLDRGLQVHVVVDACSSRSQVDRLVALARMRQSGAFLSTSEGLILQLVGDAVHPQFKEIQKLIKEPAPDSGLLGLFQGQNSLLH
# T2 sequence (Q9NRW3 whole entry): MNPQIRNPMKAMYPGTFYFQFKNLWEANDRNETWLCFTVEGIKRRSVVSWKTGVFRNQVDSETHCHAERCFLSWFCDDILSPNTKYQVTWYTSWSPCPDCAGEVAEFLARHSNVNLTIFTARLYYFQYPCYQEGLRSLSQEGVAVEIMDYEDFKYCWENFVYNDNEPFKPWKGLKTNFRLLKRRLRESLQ
structure (smiles),measurement,setting,value
Nc1ccccc1NC(=O)CCCCCCC(=O)Nc1ccccc1 [BML-210],Kd,[1]; [13],> 85 µM
same,Kd,[1]; [14],> 85 µM
Nc1ccccc1NC(=O)c1ccc(CNC(=O)OCc2cccnc2)cc1 [MS-275],IC50,[2],300 µM
same,IC50,[3],≥ 300 µM
same,IC50,[4],300 µM
same,Kd,[5],> 300 µM
same,IC50,[6],≥ 300 µM
same,IC50,[7],≥ 300 µM
same,IC50,[8],≥ 300 µM
"O=C(CCCCCCC(=O)Nc1ccccc1)NO [SAHA, suberoylanilide hydroxamic acid]",competition of capture of recombinant HDACs by the probe matrix (in words),[9],only affected at a high excess of free SAHA
CCCCOc1ccc(CC(=O)NO)cc1 [bufexamac],EC50,[10],8.9 µM
same,screen result for HDAC6 (in words),[11],preferentially affect HDAC6
same,Kd,[12]; [13],418 µM
same,Kd,[12]; [14],476 µM
